# US20250206747A1, “COELENTERAZINE ANALOGUES” (priority 2023, published 2025)
# Where two headings read alike, the source gives them in different places.
# Columns and labels:
# NANOLUC® luciferase [1] = biological target: T1, NANOLUC® luciferase (Oplophorus gracilirostris, UniProt Q9GV45, A31E/A60N/A81I/F95D/I117V/K70R/L54V/L99Q/M102K/N193R/P142E/Q151K/Q38R/Q45L/V71I/Y165I); experiment: Luminescent spectra of NANOLUC luciferase in the presence of coelenterazine analogue (peak emission); assay type: biochemical; conditions: for λ max (nm): peak luminescence emission with NANOLUC luciferase
# T1 sequence (Q9GV45 other isoform, or with tags, fused parts or gaps with the stated changes): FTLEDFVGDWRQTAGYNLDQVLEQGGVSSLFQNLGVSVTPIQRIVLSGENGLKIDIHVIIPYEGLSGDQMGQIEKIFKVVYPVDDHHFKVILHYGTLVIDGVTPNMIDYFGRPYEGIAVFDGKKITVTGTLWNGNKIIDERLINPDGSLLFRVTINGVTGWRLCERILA
# Protocol: FIGS. 1A-1B show kinetic and spectral properties of coelenterazine analogues. (FIG. 1A) Michaelis-Menten analysis determining the relative luminescence produced by 0.01 nM NANOLUC® luciferase at various concentrations of coelenterazine analogues. […] (FIG. 1B) Luminescent spectra of 0.5 nM NANOLUC® luciferase in the presence of 20 μM coelenterazine analogue.
# Experiments were conducted during the development of embodiments herein to test the effect of derivatization on the biochemical properties of novel coelenterazine analogues. Properties tested include the analogues' ability to be utilized by NANOLUC® luciferase, as assessed through the determination of Vmax and KM, as well as the peak wavelength of luminescence emission.
# NANOLUC® luciferase [2] = biological target: T1, NANOLUC® luciferase; experiment: Michaelis-Menten analysis of relative luminescence produced by NANOLUC luciferase at various concentrations of coelenterazine analogues; assay type: biochemical; conditions: 0.01 nM NANOLUC luciferase; for Vmax (norm): normalised to furimazine = 1; for Km: read-out: Km
structure (smiles),measurement,setting,value
"O=C1C(Cc2ccco2)N=C2C(c3cncc(Cl)c3)=NC(c3ccccc3)=CN12 (stereo not shown) [Compound 9812, 8-(5-chloropyridin-3-yl)-2-(furan-2-ylmethyl)-6-phenylimidazo[1,2-a]pyrazin-3(7H)-one]",shift of peak emission relative to compound 7314,"NANOLUC® luciferase [1]; reacted with NANOLUC luciferase, chloropyridin group in place of phenyl ring of 7314",red-shift the peak emission
"O=c1c(Cc2ccco2)nc2c(-c3cnnc(Cl)c3)[nH]c(-c3cccc(F)c3F)cn1-2 [Compound 10427, 8-(6-chloropyridazin-4-yl)-6-(2,3-difluorophenyl)-2-(furan-2-ylmethyl)imidazo[1,2-a]pyrazin-3(7H)-one]",Vmax (norm),NANOLUC® luciferase [2]; Table 2,0.0015
same,λ max (nm),NANOLUC® luciferase [1]; Table 2,600 nm
O=c1c(Cc2ccco2)nc2c(-c3cnnc(Cl)c3)[nH]c(-c3cccc(F)c3)cn1-2 [Compound 10299],Vmax (norm),NANOLUC® luciferase [2]; Table 1,0.000505
same,λ max (nm),NANOLUC® luciferase [1]; Table 1,622 nm
"O=c1c(Cc2ccco2)nc2c(-c3cnnc(Cl)c3)[nH]c(-c3ccccc3)cn1-2 [Compound 9894, 8-(6-Chloropyridazin-4-yl)-2-(furan-2-ylmethyl)-6-phenylimidazo[1,2-a]pyrazin-3(7H)-one]",peak emission (λem),"NANOLUC® luciferase [1]; Scheme 1, 0.5 nM NANOLUC luciferase, 20 μM coelenterazine analogue",622 nm
"O=c1c(Cc2ccco2)nc2c(Cc3ccccc3)[nH]c(-c3ccccc3)cn1-2 [Furimazine, reference compound]",Vmax (norm),NANOLUC® luciferase [2]; Table 1,1
same,Km,NANOLUC® luciferase [2]; Table 1,0.23 µM
same,Vmax (norm),NANOLUC® luciferase [2]; Table 2,1
same,Km,NANOLUC® luciferase [2]; Table 2,0.56 µM
same,λ max (nm),NANOLUC® luciferase [1]; Table 1,466 nm
same,λ max (nm),NANOLUC® luciferase [1]; Table 2,462 nm
COc1cccc(-c2cn3c(=O)c(Cc4ccco4)nc-3c(-c3cnnc(Cl)c3)[nH]2)c1 [Compound 10300],Vmax (norm),NANOLUC® luciferase [2]; Table 1,0.000505
